Consider 6 compounds from ChEMBL document CHEMBL1126955, “Substituted thiopyrano[2,3,4-c,d]indoles as potent, selective, and orally active inhibitors of 5-lipoxygenase. Synthesis and biological evaluation of L-691,816” (J Med Chem, 1993).

Data set [1] in a line: Bioavailability in rat (dose 20 mg/kg p.o. in 1% methocel, and 5 mg/kg i.v. in PEG400). The format is ADME, organism-based. Particulars: in vivo, po.
Data set [2] relates to Rattus norvegicus. Nature of the data set: Tested for percent inhibition of dyspnea duration in hyperreactive rat model after peroral administration of 5 mg/kg. Type of data set: functional. Particulars: route oral.
For data set [3], the target named is T1, Polyunsaturated fatty acid 5-lipoxygenase (Rattus norvegicus, UniProt P12527).
T1 sequence (P12527 whole entry): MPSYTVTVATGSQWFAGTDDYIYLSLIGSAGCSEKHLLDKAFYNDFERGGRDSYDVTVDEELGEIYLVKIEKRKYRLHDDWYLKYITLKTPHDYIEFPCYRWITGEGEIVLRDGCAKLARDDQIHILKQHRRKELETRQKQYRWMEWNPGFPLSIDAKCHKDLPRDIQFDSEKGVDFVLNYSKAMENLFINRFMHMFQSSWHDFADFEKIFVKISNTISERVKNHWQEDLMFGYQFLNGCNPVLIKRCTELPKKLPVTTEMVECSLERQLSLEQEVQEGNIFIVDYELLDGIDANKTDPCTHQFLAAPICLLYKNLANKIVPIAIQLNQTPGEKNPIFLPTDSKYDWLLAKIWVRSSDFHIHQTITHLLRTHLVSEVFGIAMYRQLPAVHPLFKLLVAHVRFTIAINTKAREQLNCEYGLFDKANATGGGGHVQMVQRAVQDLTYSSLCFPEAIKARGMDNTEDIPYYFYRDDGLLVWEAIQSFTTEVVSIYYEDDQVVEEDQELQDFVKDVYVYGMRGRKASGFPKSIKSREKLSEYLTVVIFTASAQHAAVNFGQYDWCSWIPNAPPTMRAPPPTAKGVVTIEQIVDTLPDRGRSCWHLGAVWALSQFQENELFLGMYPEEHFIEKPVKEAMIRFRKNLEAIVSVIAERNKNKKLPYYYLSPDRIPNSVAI
Nature of the data set: In vitro test for inhibition of 5-lipoxygenase in cell-free preparations from rat PMN leukocytes.

A short description of data set [4]: Peak concentration in rat plasma was determined. Type of data set: ADME, organism-based.
Data set [5] in a line: Maximum time taken for compound to reach peak concentration in rat plasma. The format is ADME, organism-based.
Data set [6] has as its target T2, Polyunsaturated fatty acid 5-lipoxygenase (Homo sapiens, UniProt P09917).
T2 sequence (P09917 whole entry): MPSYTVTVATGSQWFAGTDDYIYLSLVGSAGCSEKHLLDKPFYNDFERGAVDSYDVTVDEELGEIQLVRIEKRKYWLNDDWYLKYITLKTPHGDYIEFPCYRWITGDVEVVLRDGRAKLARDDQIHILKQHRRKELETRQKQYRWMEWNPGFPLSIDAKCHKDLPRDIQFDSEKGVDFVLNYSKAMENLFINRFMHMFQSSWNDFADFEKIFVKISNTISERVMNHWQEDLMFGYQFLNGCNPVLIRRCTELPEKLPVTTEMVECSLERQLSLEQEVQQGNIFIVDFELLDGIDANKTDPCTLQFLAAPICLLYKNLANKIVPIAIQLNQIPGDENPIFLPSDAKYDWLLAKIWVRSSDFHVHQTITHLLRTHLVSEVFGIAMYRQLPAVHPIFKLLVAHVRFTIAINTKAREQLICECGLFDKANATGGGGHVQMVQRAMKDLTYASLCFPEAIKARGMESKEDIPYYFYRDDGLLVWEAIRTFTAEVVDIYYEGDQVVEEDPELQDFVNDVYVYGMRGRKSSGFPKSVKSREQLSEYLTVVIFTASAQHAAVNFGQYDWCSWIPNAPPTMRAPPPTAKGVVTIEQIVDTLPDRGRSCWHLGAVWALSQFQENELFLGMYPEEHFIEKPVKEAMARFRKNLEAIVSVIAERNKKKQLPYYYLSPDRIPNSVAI
Nature of the data set: In vitro inhibition of LTB4 biosynthesis in [Ca(2+)]-ionophore-activated human polymorphonuclear leukocytes. Type of data set: functional.

Data set [7] is filed under the species Homo sapiens. The data set can be described thus: Tested in vitro for the inhibition of LTB4 biosynthesis in [Ca(2+)]-ionophore-activated human polymorphonuclear leukocytes (Result of a single titration). Type of data set: functional.
Data set [8] concerns Monkey. The data set can be described thus: Changes in dynamic compliance after administration of 1 mg/kg in squirrel monkey. Type of data set: functional.
The species entered for data set [9] is Rattus norvegicus. Nature of the data set: Tested for ex-vivo inhibition of leukotriene B4 biosynthesis in rat whole blood. The format is functional, organism-based.
In data set [10] the target is Prostaglandin G/H synthase (cyclooxygenase) (Ovis aries) (UniProt P05979+P79208). Nature of the data set: Tested for inhibition against ram seminal vesicle Prostaglandin G/H synthase at a concentration of 10 uM. Type of data set: tissue-based.
Sequence of Prostaglandin G/H synthase (cyclooxygenase) (Ovis aries) (P05979 whole entry, looked up): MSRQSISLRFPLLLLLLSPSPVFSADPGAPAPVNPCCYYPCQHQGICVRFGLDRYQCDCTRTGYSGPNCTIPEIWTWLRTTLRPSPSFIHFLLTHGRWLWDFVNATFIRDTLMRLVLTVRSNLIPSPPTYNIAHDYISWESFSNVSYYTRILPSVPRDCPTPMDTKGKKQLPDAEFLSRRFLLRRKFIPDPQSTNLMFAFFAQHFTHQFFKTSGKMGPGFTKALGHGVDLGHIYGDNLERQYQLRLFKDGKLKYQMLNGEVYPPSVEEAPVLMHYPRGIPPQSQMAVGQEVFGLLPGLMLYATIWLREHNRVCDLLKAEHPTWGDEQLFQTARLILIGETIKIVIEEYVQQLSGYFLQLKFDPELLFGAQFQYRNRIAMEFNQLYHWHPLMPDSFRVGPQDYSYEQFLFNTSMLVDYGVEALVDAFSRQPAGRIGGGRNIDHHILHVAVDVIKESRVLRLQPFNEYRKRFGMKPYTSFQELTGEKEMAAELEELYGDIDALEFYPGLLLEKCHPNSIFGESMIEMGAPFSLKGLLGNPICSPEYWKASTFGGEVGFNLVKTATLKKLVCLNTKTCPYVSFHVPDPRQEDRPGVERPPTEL
Sequence of Prostaglandin G/H synthase (cyclooxygenase) (Ovis aries) (P79208 whole entry, looked up): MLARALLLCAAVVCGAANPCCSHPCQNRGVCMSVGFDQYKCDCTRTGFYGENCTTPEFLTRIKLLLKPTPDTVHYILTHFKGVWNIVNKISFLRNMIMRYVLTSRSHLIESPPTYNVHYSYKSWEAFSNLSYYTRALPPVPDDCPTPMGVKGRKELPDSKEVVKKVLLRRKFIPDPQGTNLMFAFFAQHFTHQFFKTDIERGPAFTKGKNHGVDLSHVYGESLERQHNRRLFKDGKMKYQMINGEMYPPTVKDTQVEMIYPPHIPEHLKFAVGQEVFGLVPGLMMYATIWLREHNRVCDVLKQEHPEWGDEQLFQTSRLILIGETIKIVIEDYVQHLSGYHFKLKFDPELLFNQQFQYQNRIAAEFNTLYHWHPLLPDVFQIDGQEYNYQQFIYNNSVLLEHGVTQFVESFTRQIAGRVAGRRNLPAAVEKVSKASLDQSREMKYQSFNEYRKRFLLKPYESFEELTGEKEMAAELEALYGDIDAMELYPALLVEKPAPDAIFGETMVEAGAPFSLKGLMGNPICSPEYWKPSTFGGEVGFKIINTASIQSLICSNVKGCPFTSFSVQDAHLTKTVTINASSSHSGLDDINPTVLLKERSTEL
For data set [11], the target named is T1, Polyunsaturated fatty acid 5-lipoxygenase. The data set can be described thus: Tested for inhibition of 5-HPETE production by rat 5-LO; value ranges from 16-36 nM.
The species named for data set [12] is Homo sapiens. Nature of the data set: Tested for inhibition of leukotriene B4 synthesis in human PMN leukocytes at 5*10e5 cells/mL concentration. Type of data set: functional, cell-based.
Data set [13] is filed under the species Rattus norvegicus. The data set can be described thus: Tested for inhibition of leukotriene B4 in rat pleurisy model (8 hours pretreatment). Type of data set: functional.
For data set [14], the species on record is Rattus norvegicus. The data set can be described thus: Tested for antigen-induced dyspnea in hyperreactive rat model (2 hours pretreatment). The format is functional.
For data set [15], the target named is T2, Polyunsaturated fatty acid 5-lipoxygenase. Nature of the data set: Tested for inhibition of 5-HPETE production by human 5-LO.
For data set [16], the species on record is Rattus norvegicus. The data set can be described thus: Tested for percent inhibition of dyspnea duration in hyperreactive rat model. The format is functional.
Data set [17] relates to Monkey. The data set can be described thus: Changes in dynamic compliance after administration of 0.3 mg/kg in squirrel monkey. The format is functional.
For data set [18], the system named is Monkey. Nature of the data set: Changes in airway resistance after administration of 0.3 mg/kg in squirrel monkey. The format is functional.
In data set [19] the target is T3, Arachidonate 12-lipoxygenase (Sus scrofa, UniProt P16469).
T3 sequence (P16469 whole entry): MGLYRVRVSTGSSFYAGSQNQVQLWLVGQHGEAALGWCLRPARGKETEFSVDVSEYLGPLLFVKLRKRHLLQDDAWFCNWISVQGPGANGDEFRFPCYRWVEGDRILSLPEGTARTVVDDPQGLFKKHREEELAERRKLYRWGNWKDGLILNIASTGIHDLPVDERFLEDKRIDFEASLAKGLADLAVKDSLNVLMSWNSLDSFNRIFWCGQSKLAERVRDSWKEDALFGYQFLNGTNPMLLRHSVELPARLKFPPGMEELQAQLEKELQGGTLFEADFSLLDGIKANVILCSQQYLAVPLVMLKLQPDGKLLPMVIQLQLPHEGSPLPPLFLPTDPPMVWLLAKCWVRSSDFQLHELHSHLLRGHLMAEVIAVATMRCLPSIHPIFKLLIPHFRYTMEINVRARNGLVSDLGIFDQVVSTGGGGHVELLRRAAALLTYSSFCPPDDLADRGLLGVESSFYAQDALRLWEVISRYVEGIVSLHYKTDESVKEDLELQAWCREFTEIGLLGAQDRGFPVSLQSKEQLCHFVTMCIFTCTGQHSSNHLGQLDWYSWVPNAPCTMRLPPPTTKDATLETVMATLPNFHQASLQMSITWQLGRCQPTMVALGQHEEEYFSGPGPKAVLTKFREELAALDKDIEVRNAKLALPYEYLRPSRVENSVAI
The data set can be described thus: Tested for inhibition against porcine 12-LO.

Data set [20] can be described thus: Rate of enzyme inactivation for the compound was determined.
Data set [21] concerns Monkey. Nature of the data set: Changes in airway resistance after administration of 1 mg/kg in squirrel monkey. The format is functional.
The nature of data set [22]: Maximum time taken for compound to reach peak concentration in rat plasma; value ranges from 1-2 hrs. Type of data set: ADME, organism-based.
Data set [23] is filed under the species Rattus norvegicus. Nature of the data set: Tested for antigen-induced dyspnea in hyperreactive rat model (2 hr pretreatment). Type of data set: functional.
Data set [24] relates to Monkey. The data set can be described thus: Changes in dynamic compliance after administration of 0.3 mg/kg in squirrel monkey (not significant). Type of data set: functional.

In [1], `CC1Cc2c(OCc3ccc(-c4ccccc4)cn3)ccc3c2c(c(CC(C)(C)CC(=O)O)n3Cc2ccc(Cl)cc2)S1` (configuration not stated) showed a bioavailability of 27%. The same compound registered an inhibition in vivo at 5 mg/kg in data set [2] of 54%. The IC50 in [3] turned out to be 0.02 µM; in [6], 0.012 µM. This compound also returned a Cmax in data set [4] of 4 µM. Moreover, the Tmax in data set [5] stood at 2 h.

Take `CC1Cc2c(OCc3ccc(-c4ccccc4)cn3)ccc3c2c(c(CC(C)(C)CC(=O)NS(C)(=O)=O)n3Cc2ccc(Cl)cc2)S1` (configuration not stated): the bioavailability in [1] was 45%. In data set [2], this compound yielded an inhibition in vivo at 5 mg/kg of 44%. The results for the IC50 in [3] and in [6] were 0.036 µM and 0.011 µM, respectively. For the same compound, the Cmax in data set [4] was found to be 12 µM. Moreover, the Tmax in data set [5] was found to be 4 h.

For `CC1Cc2c(OCc3ccc(C(=O)O)cn3)ccc3c2c(c(CC(C)(C)C(=O)O)n3Cc2ccc(Cl)cc2)S1` (configuration not stated), the IC50 in [3] and in data set [7] was more than 2 µM each time.

On to `CC1Cc2c(OCc3ccc(-c4ccccc4)cn3)ccc3c2c(c(CC(C)(C)Cc2nnn[nH]2)n3Cc2ccc(Cl)cc2)S1` (configuration not stated), for which the results for the Cdyn in data set [8] and in [17] were -9.2% and -11.2%, respectively. Besides, in data set [1], the bioavailability was 40%. Also, the IC50 is 1.5 µM in data set [9]; 0.016 µM in data set [11]; 0.01 µM in data set [12]; 0.017 µM in data set [3]; 0.075 µM in [15]; 0.008 µM in data set [6]. For the same compound, the IC50 in data set [19] came to 2.8 µM. For the same compound, in [10], the inhibition was 59%. The results for the ED50 in [13] and in data set [14] were 1.9 mg/kg and 0.1 mg/kg, respectively. In [4], the highest level (Cmax) was 10 µM. The compound also came in with an Inhibition in [16] of 70%. Further, the Tmax in data set [5] turned out to be 6 h. The RL in [18] is on record as 17.5%; in [21], 12.6%. Besides, in [20], the kinact is 0.009 s⁻¹.

In [1], `CC1Cc2c(CCc3ccc(-c4ccccc4)cn3)ccc3c2c(c(CC(C)(C)Cc2nnn[nH]2)n3Cc2ccc(Cl)cc2)S1` (configuration not stated) gave a bioavailability of 36%. The Tmax in data set [22] turned out to be 1 h. Moreover, the IC50 in [3] is 0.016 µM; in [6] it was 0.003 µM. In data set [4], this compound displayed a Cmax of 8 µM. For the same compound, in data set [16], the Inhibition was 37%.

With `CC(C)(C)Sc1c(CC(C)(C)C(=O)O)n(Cc2ccc(Cl)cc2)c2ccc(OCc3ccc4ccccc4n3)cc12` [QUIFLAPON], in [23], the ED50 was 0.16 mg/kg. This compound had an RL in data set [18] of 44%. The Cdyn in data set [24] is recorded as 46%.
